Test results: publication PMC7897442, “Mobility shift-based electrophoresis coupled with fluorescent detection enables real-time enzyme analysis of carbohydrate sulfatase activity” (Biochemical Journal, 2021)

Assays:
[1] = Stability of labelled substrate in CE assay without enzyme; format: physicochemical; conditions: absence of enzyme, CE assay conditions
Description: 6S-N-acetyl-D-glucosamine was labelled at its reducing end with BODIPY which has a maximal emission absorbance of ∼503 nm, which can be detected by the EZ Reader II platform via LED-induced fluorescence. Non-radioactive microfluidic mobility shift carbohydrate sulfation assays were optimised in solution with a 12-sipper chip coated with CR8 reagent and performed using a PerkinElmer EZ Reader II system employing EDTA-based separation buffer and real-time kinetic evaluation of substrate desulfation. Pressure and voltage settings were adjusted manually (1.8 psi, upstream voltage: 2250 V, downstream voltage: 500 V) to afford optimal separation in the reaction mixture of the sulfated substrate and unsulfated glycan product, with a sample (sip) time of 0.2 s, and total assay times appropriate for the experiment. Individual de-sulfation assays were carried out at 28°C and were pre-assembled in a 384-well plate in a volume of 80 μl in the presence of substrate concentrations between 0.5 and 20 μM with 100 mM Bis-Tris-Propane (BTP) or Tris, dependent on the pH required, and 150 mM NaCl, 0.02% (v/v) Brij-35 and 5 mM CaCl2. The amount of de-sulfation was directly calculated in real-time using EZ Reader II software by measuring the sulfated carbohydrate : unsulfated carbohydrate ratio at each time point during the assay. […]

[2] = parameters: method as in PMID 36876452; conditions: pH range; cited from earlier work

amount of unsulfated substrate over the course of the reaction (stability) [1]	Structure (SMILES)	stability over a variety of pH values [2]
remained constant	CC(=O)N[C@@H]1[C@@H](O)[C@H](O)[C@@H](COS(=O)(=O)O)O[C@H]1NNC(=O)CCC1=[N+]2C(=Cc3c(C)cc(C)n3[B-]2(F)F)C=C1 [6S-GlcNAc-BODIPY]	–
–	Cc1cc(C)n2c1C=C1C=CC(CCC(=O)NN)=[N+]1[B-]2(F)F [BODIPY-FL hydrazide, 4,4-difluoro-5,7-dimethyl-4-bora-3a,4a-diaza-s-indacene-3-propionic acid, hydrazide]	3–12
